Here are results for five compounds from ChEMBL document CHEMBL3886209, “Benzimidazole-imidazole derivatives” (2016).

Molecules are shown by their SMILES.

Experiment [1] in a line: Stable Replicon Assay: The assay utilized the stably transfected cell line Huh-7 luc/neo (hereafter referred to as Huh-Luc). This cell line harbors an RNA encoding a bicistronic expression construct comprising the wild type NS3-NS5B regions of HCV type 1b translated from an Internal Ribosome Entry Site (IRES) from encephalomyocarditis virus (EMCV), preceded by a reporter portion (FfL-luciferase), and a selectable marker portion (neoR, neomycine phosphotransferase). The construct is flanked by 5' and 3' NTRs (non-translated regions) from HCV type 1b. Continued culture of the replicon cells in the presence of G418 (neoR) is dependent on the replication of the HCV RNA. The stably transfected replicon cells that replicate HCV RNA autonomously and to high levels, encoding inter alia luciferase, were used for screening the antiviral compounds. The replicon cells were plated in 384 well plates in the presence of the test and control compounds which were added in various concentrations. Following an incubation of three days, HCV replication was measured by assaying luciferase activity (using standard luciferase assay substrates and reagents and a Perkin Elmer ViewLux™ ultraHTS microplate imager). Replicon cells in the control cultures have high luciferase expression in the absence of any inhibitor. The inhibitory activity of the compound was monitored on the Huh-Luc cells, enabling a dose-response curve for each test compound. In general terms: Replicon systems follow genome replication, usually without infectious particles.

Experiment [2] in a line: (§1) Transient Replicon Assay: In a transient set-up, a Huh-7 lunet hepatoma cell line was transiently transfected with an autonomously replicating RNA encoding a bi-cistronic expression construct. This construct comprises a firefly luciferase reporter gene preceding the NS3-NS5B subgenomic region of HCV (genotype 1a H77 or 1b Con1). Translation of the HCV subgenomic region is mediated by an internal ribosome entry site of encephalomyocarditis virus. The construct is furthermore flanked by 5' and 3' untranslated regions of HCV (genotype 1a H77 or 1b Con 1, respectively), which allow for replication of the RNA. In addition to the wild-type constructs, site-directed mutations were introduced into the transient HCV genotype 1b replicon in the gene encoding for the non-structural protein 5A (NS5A). More precisely, amino acid residues 28, 30, 31 and 93 in NS5A were independently altered. Cells were plated in 384 well plates in the presence of test and control compounds, which were added in various concentrations. Following an incubation of two days, replication of the HCV subgenomic replicon RNA was measured by assaying luciferase activity (using standard luciferase assay substrates and reagents and a Perkin Elmer ViewLux™ ultraHTS microplate imager). HCV subgenomic replicon containing cells in the control cultures have high luciferase expression in the absence of any inhibitor. The inhibitory activity of the compound was monitored, enabling a dose-response curve for each test compound. The format is cell-based.

Another experiment addresses Nonstructural protein 5A (Hepatitis C virus, UniProt Q5L478). The description is as §1. The format is cell-based.

On to `CC[C@H](C)[C@H](NC(=O)OC)C(=O)N1CCC[C@H]1c1nc2cc(-c3ccc4cc(-c5cnc([C@@H]6CCCN6C(=O)[C@@H](NC(=O)OC)[C@@H](C)OC)[nH]5)ccc4c3)ccc2[nH]1`, for which the EC50 in experiment [1] was 3 pM; in experiment [2] it was 4 pM.
Turning to `CC[C@H](C)[C@H](NC(=O)OC)C(=O)N1CCC[C@H]1c1nc2ccc(-c3ccc4cc(-c5cnc([C@@H]6CCCN6C(=O)[C@@H](NC(=O)OC)C(C)C)[nH]5)ccc4c3)cc2[nH]1`, at Nonstructural protein 5A, the EC50 was under 13 pM.
With `COC(=O)N[C@H](C(=O)N1CCC[C@H]1c1nc2ccc(-c3ccc4cc(-c5cnc([C@@H]6CCCN6C(=O)[C@@H](NC(=O)OC)[C@@H](C)OC)[nH]5)ccc4c3)cc2[nH]1)C(C)C`, the half-maximal effective concentration (EC50) in experiment [1] was determined as 6 pM.
With `COC(=O)N[C@H](C(=O)N1CCC[C@H]1c1ncc(-c2ccc3cc(-c4ccc5nc([C@@H]6CCCN6C(=O)[C@@H](NC(=O)OC)[C@@H](C)OC)[nH]c5c4)ccc3c2)[nH]1)C(C)C`, the EC50 at Nonstructural protein 5A was under 17 pM.
With `CC[C@@H](C)[C@H](NC(=O)OC)C(=O)N1CCC[C@H]1c1ncc(-c2ccc3cc(-c4ccc5nc([C@@H]6CCCN6C(=O)[C@@H](NC(=O)OC)[C@H](C)CC)[nH]c5c4)ccc3c2)[nH]1`, the EC50 in experiment [1] was determined as 3 pM; in experiment [2], 2 pM.

By EC50 is commonly meant the concentration at which the effect is half-maximal.
